pKi: −log10 of the molar value. Where a name gives a salt, the structure may show the parent alone.
Biological target: T1, recombinant human GSK3β (Homo sapiens, UniProt P49841)
T1 construct: purchased Dundee University, UK
Experiment: GSK3β Scintillation Proximity Assay (ATP competition)
Assay type: biochemical
Conditions: inhibition constant from ATP competition, 10 inhibitor concentrations in duplicate; ATP 1 μM; Km of ATP 20 μM
Procedure: Determination of ATP competition in Scintillation Proximity GSK3β Assay.
GSK3β Scintillation Proximity Assay.
The competition experiments were carried out in duplicate with 10 different concentrations of the inhibitors in clear-bottom microtiter plates (Wallac, Finland). A biotinylated peptide substrate, Biotin-Ala-Ala-Glu-Glu-Leu-Asp-Ser-Arg-Ala-Gly-Ser(PO3H2)-Pro-Gln-Leu (AstraZeneca, Lund), was added at a final concentration of 1 μM in an assay buffer containing 1 mU recombinant human GSK3β (Dundee University, UK), 12 mM morpholinepropanesulfonic acid (MOPS), pH 7.0, 0.3 mM EDTA, 0.01% β-mercaptorethanol, 0.004% Brij 35 (a […] detergent), 0.5% glycerol and 0.5 μg BSA/25 μl. The reaction was initiated by the addition of 0.04 μCi [γ-^33P]ATP (Amersham, UK) and unlabelled ATP at a final concentration of 1 μM and assay volume of 25 μl. After incubation for 20 minutes at room temperature, each reaction was terminated by the addition of 25 μl stop solution containing 5 mM EDTA, 50 μM ATP, 0.1% Triton X-100 and 0.25 mg streptavidin coated Scintillation Proximity Assay (SPA) beads (Amersham, UK). After 6 hours the radioactivity was determined in a liquid scintillation counter (1450 MicroBeta Trilux, Wallac). The inhibition curves were analysed by non-linear regression using GraphPad Prism, USA. The Km value of ATP for GSK30, used to calculate the inhibition constants (Ki) of the various compounds, was 20 μM.

T1 sequence (P49841 whole entry): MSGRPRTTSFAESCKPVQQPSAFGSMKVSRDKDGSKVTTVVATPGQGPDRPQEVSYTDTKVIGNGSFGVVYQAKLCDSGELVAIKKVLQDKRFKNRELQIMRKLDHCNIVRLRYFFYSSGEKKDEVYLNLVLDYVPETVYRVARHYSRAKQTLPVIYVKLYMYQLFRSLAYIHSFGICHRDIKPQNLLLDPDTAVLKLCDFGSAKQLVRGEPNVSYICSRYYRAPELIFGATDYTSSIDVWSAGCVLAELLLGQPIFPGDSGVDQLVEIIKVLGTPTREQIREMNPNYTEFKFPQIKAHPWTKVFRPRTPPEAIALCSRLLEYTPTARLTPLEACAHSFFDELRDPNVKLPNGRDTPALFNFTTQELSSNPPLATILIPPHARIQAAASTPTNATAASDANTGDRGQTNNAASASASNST

| SMILES | pKi |
| --- | --- |
| Cc1ncc(-c2nc(Nc3ccc(C(=O)N4CCN(C)CC4)cc3)ncc2F)n1C1CCCCC1 [Example 17, 4-(1-Cyclohexyl-2-methyl-1H-imidazol-5-yl)-5-fluoro-N-{4-[(4-methylpiperazin-1-yl)carbonyl]phenyl}pyrimidin-2-amine hydrochloride] | 7.85 |
| COc1cc(Nc2ncc(F)c(-c3cnc(C)n3C)n2)cc(C(F)(F)F)c1 [Example 1, 4-(1,2-Dimethyl-1H-imidazol-5-yl)-5-fluoro-N-[3-methoxy-5-(trifluoromethyl)phenyl]pyrimidin-2-amine] | 8.00 |
| Cc1ncc(-c2nc(Nc3ccc(CN4CCN(C)CC4)cc3)ncc2F)n1C [Example 29, 4-(1,2-Dimethyl-1H-imidazol-5-yl)-5-fluoro-N-{4-[(4-methylpiperazin-1-yl)methyl]phenyl}pyrimidin-2-amine hydrochloride] | 6.90 |
| Cc1ncc(-c2nc(Nc3cccc(S(C)(=O)=O)c3)ncc2F)n1C1CCOCC1 [Example 22, 5-Fluoro-N-[3-(methylsulfonyl)phenyl]-4-[2-methyl-1-(tetrahydro-2H-pyran-4-yl)-1H-imidazol-5-yl]pyrimidin-2-amine hydrochloride] | 7.66 |

Reference: patent US20090105252A1, “Pyrimidine Derivatives and Their Use in Therapy as well as the Use of Pyrimidine Derivatives in the Manufacture of a Medicament for Prevention and/or Treatment of Alzheimer's Disease” (AstraZeneca AB, priority 2005, published 2009)
